This is an account of results in patent publication US8063060B2, “R(−)-11-hydroxyaporphine derivatives and uses thereof” (The McLean Hospital Corporation, priority 2004, dated 2011).

The conditions of data set [1]: following a single dose; cited from earlier work.
Data set [2] has as its system adult male Sprague-Dawley rats. Briefly: Stimulation of motor activity (photobeam activity monitoring), in vivo potency and oral bioavailability. Set-up: species or system rat. Conditions: for Induced motor activation, Response (total of electronically monitored locomotor responses, scored over time): relative to 4 μmol/kg i.p. R(−)-apomorphine = 1. As to the method:
In vivo potency and oral bioavailability of the aporphine derivatives were determined by measuring stimulation of motor activity in adult male Sprague-Dawley rats using a photobeam activity monitoring system (San Diego Instruments; San Diego, Calif.). See Zhang et al., Neuropsychopharmacology 25:624 (2001). The number of animal subjects in each experimental group ranged from 4 to 8. Oral delivery of test agents was achieved using a permanently surgically pre-implanted polyethylene gastric tube to avoid stress associated with conventional oral intubation. For this surgery, rates were anesthetized with 60 mg/kg sodium pentobarbital intraperitoneally. PE50 tubing was inserted and sutured to the stomach, and led subcutaneously to a point of access on the back of the neck, where it was sutured in place. Animals were allowed two weeks to recover prior to behavior testing.

The target of a further data set is T1, human D3 receptor (Homo sapiens, UniProt P35462).
T1 construct: expressed in transfected cells
T1 sequence (P35462 whole entry): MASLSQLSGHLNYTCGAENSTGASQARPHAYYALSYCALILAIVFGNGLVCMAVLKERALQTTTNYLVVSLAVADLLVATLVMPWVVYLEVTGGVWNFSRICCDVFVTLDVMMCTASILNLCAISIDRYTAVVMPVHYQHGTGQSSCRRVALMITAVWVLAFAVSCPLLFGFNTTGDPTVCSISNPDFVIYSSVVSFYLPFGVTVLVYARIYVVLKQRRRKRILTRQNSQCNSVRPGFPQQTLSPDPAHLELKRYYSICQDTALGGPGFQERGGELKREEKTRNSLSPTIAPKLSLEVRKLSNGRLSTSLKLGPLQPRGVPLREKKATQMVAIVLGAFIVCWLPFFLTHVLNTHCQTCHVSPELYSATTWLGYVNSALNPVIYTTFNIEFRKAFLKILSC
Description: Affinity at human D3 receptor in transfected cell membranes, tritium-labeled 7-OH-DPAT. In kind it is binding. As to the method:
(§1) Affinity data were obtained in cells transfected with human D1, D2, or D3 receptor cDNA. Cells were grown and harvested using standard procedures.

The target in a further data set is T2, dopamine D1 receptor (Rattus norvegicus, UniProt P18901).
T2 construct: membrane preparations from dopamine-rich corpus striatum (caudatoputamen) tissue from rat forebrain; from tissue; host or cells: corpus striatum (caudatoputamen) of adult male Sprague-Dawley rats
T2 sequence (P18901 whole entry): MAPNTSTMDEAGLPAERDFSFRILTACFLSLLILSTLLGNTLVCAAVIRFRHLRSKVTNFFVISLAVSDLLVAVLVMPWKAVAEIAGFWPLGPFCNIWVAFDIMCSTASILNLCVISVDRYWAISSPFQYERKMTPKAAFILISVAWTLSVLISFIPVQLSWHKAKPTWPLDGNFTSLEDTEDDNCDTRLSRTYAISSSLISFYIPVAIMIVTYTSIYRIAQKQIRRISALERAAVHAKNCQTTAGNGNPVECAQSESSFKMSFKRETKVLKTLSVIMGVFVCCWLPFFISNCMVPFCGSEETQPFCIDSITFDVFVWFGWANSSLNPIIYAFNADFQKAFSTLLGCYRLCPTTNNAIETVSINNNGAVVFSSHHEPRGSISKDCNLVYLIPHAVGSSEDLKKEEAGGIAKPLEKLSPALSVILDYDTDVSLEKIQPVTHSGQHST
Briefly: Radioligand competition assay, D1 receptor, rat corpus striatum membranes, [3H]SCH-23390. In kind it is binding. As to the method:
(§2) Affinity of N-alkyl R(−)-11-hydroxyaporphines (14, 4, 5, 15, 23, 24) and their esters (17-19) for the dopamine D1 and D2 receptors was determined by radioligand competition assays, using membrane preparations from dopamine-rich corpus striatum (caudatoputamen) tissue from rat forebrain. Adult male Sprague-Dawley rats were sacrificed by decapitation following carbon dioxide narcosis. Brains were quickly removed and dissected on ice. Tissue was homogenized in 50 mM Tris-HCl buffer (pH 7.4) containing 150 mM NaCl, washed twice and resuspended in the same buffer. For the D1 dopamine receptor assay, homogenate was incubated with 0.3 nM [^3H]SCH-23390 (Perkin Elmer; Boston, Mass.) for 30 minutes at 30° C. Non-specific binding was defined with 10 μM cis-flupenthixol. See Faedda et al., Biochem. Pharmacol. 38:473 (1989). For the D2 receptor assay, homogenate was incubated with […] [^3H]nemonapride (Perkin Elmer, Boston, Mass.) for 90 minutes at 30° C. Nonspecific binding was defined with 10 μM haloperidol. See Baldessarini et al., Mol. Pharmacol. 42:856 (1992). Experiments were carried out in triplicate.
In general terms: In a radioligand displacement assay an active substance lowers the binding of a labelled ligand.

For the next data set, the target named is dopamine D2 receptor (Rattus norvegicus, UniProt P61169). Description: Radioligand competition assay, D2 receptor, rat corpus striatum membranes, [3H]nemonapride. In kind it is binding. As to the method:
as §2

The target of the next data set is T3, human D1 receptor (Homo sapiens, UniProt P21728).
T3 construct: expressed in transfected cells
T3 sequence (P21728 whole entry): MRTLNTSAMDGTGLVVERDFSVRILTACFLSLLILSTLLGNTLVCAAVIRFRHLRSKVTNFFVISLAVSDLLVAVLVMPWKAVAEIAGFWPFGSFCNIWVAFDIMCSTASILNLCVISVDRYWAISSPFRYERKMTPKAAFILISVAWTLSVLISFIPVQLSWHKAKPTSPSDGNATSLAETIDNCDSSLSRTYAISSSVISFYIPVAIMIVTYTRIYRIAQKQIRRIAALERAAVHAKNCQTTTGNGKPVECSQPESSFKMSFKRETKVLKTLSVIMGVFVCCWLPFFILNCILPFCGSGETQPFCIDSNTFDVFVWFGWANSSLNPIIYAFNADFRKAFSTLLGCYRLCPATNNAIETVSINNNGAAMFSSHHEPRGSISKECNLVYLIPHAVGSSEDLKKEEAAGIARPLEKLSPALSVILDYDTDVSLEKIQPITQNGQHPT
Description: Affinity at human D1 receptor in transfected cell membranes, tritium-labeled SCH-23390. In kind it is binding. As to the method: as §1

The target of a further data set is T4, human D2 receptor (Homo sapiens, UniProt P14416).
T4 construct: expressed in transfected cells
T4 sequence (P14416 whole entry): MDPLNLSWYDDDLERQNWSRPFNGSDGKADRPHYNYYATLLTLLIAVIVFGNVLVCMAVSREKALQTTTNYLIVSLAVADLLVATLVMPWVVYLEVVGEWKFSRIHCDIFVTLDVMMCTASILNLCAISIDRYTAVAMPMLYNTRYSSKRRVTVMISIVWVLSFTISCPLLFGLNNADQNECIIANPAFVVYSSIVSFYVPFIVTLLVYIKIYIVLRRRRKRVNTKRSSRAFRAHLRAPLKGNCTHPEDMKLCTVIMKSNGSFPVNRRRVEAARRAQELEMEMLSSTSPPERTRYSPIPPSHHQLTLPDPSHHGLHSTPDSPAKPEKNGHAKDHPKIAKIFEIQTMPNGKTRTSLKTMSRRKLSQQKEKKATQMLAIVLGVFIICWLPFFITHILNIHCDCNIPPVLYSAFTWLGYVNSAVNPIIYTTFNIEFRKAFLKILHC
Briefly: Affinity at human D2 receptor in transfected cell membranes, tritium-labeled nemonapride. In kind it is binding. As to the method:
as §1

Where [3] appears, read: transfected cell membranes, read-out: Affinity at human receptors, D3.
Where [4] appears, read: rat striatal membranes, 0.3 nM [3H]SCH-23390, 30 minutes at 30° C, read-out: Affinity at rat dopamine receptors, D1.
[5] abbreviates: rat striatal membranes, [3H]nemonapride, 90 minutes at 30° C, read-out: Affinity at rat dopamine receptors, D2.
Where [6] appears, read: transfected cell membranes, read-out: Affinity at human receptors, D1.
Setting [7] is: transfected cell membranes, read-out: Affinity at human receptors, D2.

Where a name gives a salt, the structure may show the parent alone. Read-outs that look alike come from different tables or passages of the source.

dopamine D2 receptor, sequence (P61169 1-415 isoform P61169-2): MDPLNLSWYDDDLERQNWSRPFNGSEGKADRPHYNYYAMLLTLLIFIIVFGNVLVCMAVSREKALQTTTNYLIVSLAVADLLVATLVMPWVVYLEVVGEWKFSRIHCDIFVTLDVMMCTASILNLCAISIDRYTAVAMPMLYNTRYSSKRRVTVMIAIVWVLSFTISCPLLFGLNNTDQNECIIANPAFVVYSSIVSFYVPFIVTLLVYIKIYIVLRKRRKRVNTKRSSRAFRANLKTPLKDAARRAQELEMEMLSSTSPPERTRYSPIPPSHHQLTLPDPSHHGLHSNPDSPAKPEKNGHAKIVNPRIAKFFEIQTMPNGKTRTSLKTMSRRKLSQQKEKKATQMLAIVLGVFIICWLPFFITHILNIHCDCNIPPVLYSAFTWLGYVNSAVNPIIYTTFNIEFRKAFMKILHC

With `C=CCN1CCc2cccc3c2[C@H]1Cc1cccc(O)c1-3` (as salt: hydrochloride) [Compound 5, R(−)-N-allyl-11-hydroxynoraporphine], the melting point (as a rule, the temperature of the solid-liquid transition) lay within 186 to 190 °C.
Regarding `CCN1CCc2cccc3c2[C@H]1Cc1cccc(O)c1-3` (as salt: hydrochloride) [Compound 14, R(−)—N-ethyl-11-hydroxynoraporphine], the melting point came to 250 °C.
Consider `CN1CCc2cccc3c2[C@H]1Cc1ccc(O)c(O)c1-3` [Compound 1, R(−)-apomorphine], for which, in data set [1], the “effects last for” value was 40 to 60 min and the onset of action is 5 to 15 min.
In the case of `CCCN1CCc2cccc3c2[C@H]1Cc1ccc(O)c(O)c1-3` [Compound 2, R(−)-N-propylnorapomorphine, reference compound], the “Induced motor activation, Response (total of electronically monitored locomotor responses, scored over time)” value came out at 0 in data set [2] (4 μmol/kg, gastric); 12 in data set [2] (4 μmol/kg, peritoneal); 68 in data set [2] (20 μmol/kg, gastric). Also, the “Induced motor activation, Duration” value in data set [2] (4 μmol/kg, peritoneal) turned out to be 8 h; in data set [2] (20 μmol/kg, gastric), 14 h. The Ki at human D3 receptor (setting [3]) turned out to be 0.51 ± 0.07 nM.
As for `CN1CCc2cccc3c2[C@H]1Cc1cccc(O)c1-3` [Compound 3, R(−)-11-OH-aporphine, reference compound], the Ki came out at 26.5 ± 1.03 nM at dopamine D1 receptor (setting [4]) and 108 ± 10.8 nM at dopamine D2 receptor (setting [5]).
For the molecule `CCCN1CCc2cccc3c2[C@H]1Cc1cccc(O)c1-3` [Compound 4, R(−)—N-propyl-11-hydroxynoraporphine], the “Induced motor activation, Response (total of electronically monitored locomotor responses, scored over time)” value in data set [2] (4 μmol/kg, gastric) was 0; in data set [2] (4 μmol/kg, peritoneal), 24; in data set [2] (20 μmol/kg, gastric), 76. In addition, the “Induced motor activation, Duration” value in data set [2] (4 μmol/kg, peritoneal) came to 8 h; in data set [2] (20 μmol/kg, gastric) it was 18 h. Besides, the Ki on human D1 receptor was found to be 1280 ± 209 nM; at human D3 receptor it was 4.89 ± 1.06 nM.
`C=CCN1CCc2cccc3c2[C@H]1Cc1cccc(O)c1-3` [Compound 5, R(−)-N-allyl-11-hydroxynoraporphine]: the Ki on dopamine D1 receptor was determined as 397 ± 51 nM; on dopamine D2 receptor it was 41.1 ± 11 nM; on human D1 receptor, 944 ± 149 nM; at human D2 receptor, 113 ± 17 nM.
`CCN1CCc2cccc3c2[C@H]1Cc1cccc(O)c1-3` [Compound 14, R(−)—N-ethyl-11-hydroxynoraporphine]: the Ki on dopamine D1 receptor (setting [4]) is 177 ± 13 nM; at dopamine D2 receptor it was 88 ± 15.5 nM; at human D1 receptor (setting [6]), 362 ± 38 nM; on human D2 receptor (setting [7]), 283 ± 53 nM; at human D3 receptor it was 36.7 ± 4 nM. Moreover, the “Induced motor activation, Response (total of electronically monitored locomotor responses, scored over time)” value in data set [2] (4 μmol/kg, gastric) is 0; in data set [2] (4 μmol/kg, peritoneal) it was 12; in data set [2] (20 μmol/kg, gastric) it was 0. In addition, the “Induced motor activation, Duration” value in data set [2] (4 μmol/kg, peritoneal) was found to be 4 h.
As for `Oc1cccc2c1-c1cccc3c1[C@@H](C2)N(CC1CC1)CC3` [Compound 15, R(−)-N-cyclopropylmethyl-11-hydroxynoraporphine], the Ki at dopamine D1 receptor (setting [4]) came out at 272 ± 18 nM; on dopamine D2 receptor, 96.3 ± 15.8 nM; at human D2 receptor (setting [7]), 436 ± 39 nM; at human D3 receptor, 30.1 ± 3.5 nM.
For the molecule `CC/C=C\C/C=C\C/C=C\C/C=C\C/C=C\C/C=C\CCC(=O)Oc1cccc2c1-c1cccc3c1[C@@H](C2)N(CCC)CC3` [Compound 17, R(−)-11-O-docosahexaenoyl-N-propyl-noraporphine], the “Induced motor activation, Response (total of electronically monitored locomotor responses, scored over time)” value in data set [2] (4 μmol/kg, cutaneous) amounted to 0; in data set [2] (4 μmol/kg, gastric) it was 0; in data set [2] (20 μmol/kg, cutaneous), 5; in data set [2] (20 μmol/kg, gastric) it was 75. In addition, the “Induced motor activation, Duration” value came out at 6 h in data set [2] (20 μmol/kg, cutaneous) and 12 h in data set [2] (20 μmol/kg, gastric).
`CCCCC(=O)Oc1cccc2c1-c1cccc3c1[C@@H](C2)N(CCC)CC3` [Compound 18, R(−)-11-O-valeryl-N-propyl-noraporphine]: the Ki on dopamine D2 receptor (read-out: Affinity at rat dopamine receptors, D2) amounted to 340 ± 65 nM. Also, the “Induced motor activation, Response (total of electronically monitored locomotor responses, scored over time)” value in data set [2] (4 μmol/kg, gastric) came out at 0; in data set [2] (4 μmol/kg, peritoneal), 53; in data set [2] (20 μmol/kg, gastric) it was 99. For the same molecule, the “Induced motor activation, Duration” value was 12 h in data set [2] (4 μmol/kg, peritoneal) and 14 h in data set [2] (20 μmol/kg, gastric).
Take `CCCN1CCc2cccc3c2[C@H]1Cc1cccc(OC(C)=O)c1-3` [Compound 19, R(−)-11-O-acetyl-N-propyl-noraporphine]: the Ki at dopamine D2 receptor (setting [5]) is 72.3 ± 6.8 nM. Besides, the “Induced motor activation, Response (total of electronically monitored locomotor responses, scored over time)” value was 0 in data set [2] (4 μmol/kg, gastric); 12 in data set [2] (4 μmol/kg, peritoneal); 168 in data set [2] (20 μmol/kg, gastric). Besides, the “Induced motor activation, Duration” value in data set [2] (4 μmol/kg, peritoneal) came to 8 h; in data set [2] (20 μmol/kg, gastric), 16 h.
`CCCN1CCc2cc(F)cc3c2[C@H]1Cc1ccc(O)c(O)c1-3` [Compound 22, R(−)-2-fluoro-N-n-propylnorapomorphine, reference compound]: the Ki was 618 ± 133 nM at dopamine D1 receptor (setting [4]); 17.2 ± 1.2 nM at dopamine D2 receptor (setting [5]); 414 ± 30 nM on human D1 receptor (setting [6]); 46 ± 2.6 nM on human D2 receptor (setting [7]); 2.49 ± 0.18 nM at human D3 receptor (setting [3]).
For `CCCN1CCc2cc(F)cc3c2[C@H]1Cc1cccc(O)c1-3` [Compound 23, R(−)-2-fluoro-N-propyl-11-hydroxynoraporphine], the Ki on dopamine D1 receptor was 12.6 ± 0.6 nM; on dopamine D2 receptor (setting [5]) it was 203 ± 37 nM.
In the case of `CN1CCc2cc(O)cc3c2[C@H]1Cc1cccc(O)c1-3` [Compound 24, R(−)-2,11-dihydroxyaporphine], the Ki on dopamine D1 receptor (setting [4]) was determined as 122 ± 8 nM; at dopamine D2 receptor it was 86 ± 14.2 nM.
